# According to ChEMBL document CHEMBL5370531, “Design, synthesis and pharmacological evaluation of 2,3-dihydrobenzofuran IRAK4 inhibitors for the treatment of diffuse large B-cell lymphoma” (Eur J Med Chem, 2023):
# Activity calls are given as the source filed them. The rule behind the calls is not given here.
# How the values were obtained:
# OCI-Ly10 [1] = experiment: Induction of apoptosis in human OCILY10 cells harboring MYD88 L265P assessed as late apoptotic cells at 0.1 uM incubated for 48 hrs in presence of BTK inhibitor, ibrutinib by Annexin V-FITC/PI staining based flow cytometry (reference value: 6.59 %); assay type: functional
# OCI-Ly10 [2] = experiment: Cytotoxicity against human OCILY10 cells assessed as inhibition of cell proliferation incubated for 72 hrs by CCK-8 assay; assay type: functional, cell-based; details: OCI-Ly10, 72 h
# OCI-Ly10 [3] = experiment: Synergistic antiproliferative activity against human OCILY10 cells harboring MYD88 L265P assessed as inhibition of cell growth at 800 nM incubated for 72 hrs in presence of BTK inhibitor, ibrutinib at 1.6 nM by CCK-8 assay (reference value: 54.76 %); assay type: functional
# OCI-Ly10 [4] = experiment: Synergistic antiproliferative activity against human OCILY10 cells harboring MYD88 L265P assessed as inhibition of cell growth at 1600 nM incubated for 72 hrs in presence of BTK inhibitor, ibrutinib at 1.6 nM by CCK-8 assay (reference value: 64.69 %); assay type: functional
# OCI-Ly10 [5] = experiment: Synergistic antiproliferative activity against human OCILY10 cells harboring MYD88 L265P assessed as inhibition of cell growth at 100 nM incubated for 72 hrs in presence of BTK inhibitor, ibrutinib at 3.1 nM by CCK-8 assay (reference value: 21.36 %); assay type: functional
# OCI-Ly10 [6] = experiment: Synergistic antiproliferative activity against human OCILY10 cells harboring MYD88 L265P assessed as inhibition of cell growth at 800 nM incubated for 72 hrs in presence of BTK inhibitor, ibrutinib at 12.5 nM by CCK-8 assay (reference value: 54.76 %); assay type: functional
# [7] = target: Fibroblast growth factor receptor 2 (Homo sapiens) (UniProt P21802); experiment: Inhibition of FGFR2 (unknown origin) at 100 nM incubated for 1 hr in presence of ATP by ELISA analysis
# Chain of Fibroblast growth factor receptor 2 (Homo sapiens) (P21802 22-821 limits assumed): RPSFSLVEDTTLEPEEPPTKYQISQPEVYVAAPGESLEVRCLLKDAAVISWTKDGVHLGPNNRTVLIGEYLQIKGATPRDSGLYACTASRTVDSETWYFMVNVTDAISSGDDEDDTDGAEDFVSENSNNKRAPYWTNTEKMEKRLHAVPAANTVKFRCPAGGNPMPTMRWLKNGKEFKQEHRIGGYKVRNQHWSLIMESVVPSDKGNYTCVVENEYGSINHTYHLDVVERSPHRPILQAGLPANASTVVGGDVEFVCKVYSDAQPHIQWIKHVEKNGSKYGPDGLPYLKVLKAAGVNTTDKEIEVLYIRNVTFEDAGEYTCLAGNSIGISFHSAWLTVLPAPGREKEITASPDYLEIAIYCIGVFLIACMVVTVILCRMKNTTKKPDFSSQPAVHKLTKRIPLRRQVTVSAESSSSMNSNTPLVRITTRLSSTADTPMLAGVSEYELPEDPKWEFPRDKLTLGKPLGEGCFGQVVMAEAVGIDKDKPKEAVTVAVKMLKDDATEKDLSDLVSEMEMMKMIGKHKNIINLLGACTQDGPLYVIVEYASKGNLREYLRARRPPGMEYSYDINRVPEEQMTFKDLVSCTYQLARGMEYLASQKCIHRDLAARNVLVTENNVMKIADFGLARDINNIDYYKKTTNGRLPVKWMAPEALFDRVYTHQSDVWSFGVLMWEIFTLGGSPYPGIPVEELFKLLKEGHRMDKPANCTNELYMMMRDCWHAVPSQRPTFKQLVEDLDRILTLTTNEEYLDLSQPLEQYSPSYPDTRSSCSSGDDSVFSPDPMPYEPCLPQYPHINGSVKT
# [8] = target: Vascular endothelial growth factor receptor 2 (Homo sapiens) (UniProt P35968); experiment: Inhibition of VEGFR2 (unknown origin) at 100 nM incubated for 1 hr in presence of ATP by ELISA analysis
# U2932 = experiment: Cytotoxicity against human U2932 cells assessed as inhibition of cell proliferation incubated for 72 hrs by CCK-8 assay; assay type: functional, cell-based; details: U2932, 72 h
# OCI-Ly10 [9] = experiment: Induction of apoptosis in human OCILY10 cells assessed as early apoptotic cells at 1 uM incubated for 48 hrs by Annexin V-FITC/PI staining based flow cytometry (reference value: 5.4 %); assay type: functional
# OCI-Ly10 [10] = experiment: Synergistic antiproliferative activity against human OCILY10 cells harboring MYD88 L265P assessed as inhibition of cell growth at 400 nM incubated for 72 hrs in presence of BTK inhibitor, ibrutinib at 6.2 nM by CCK-8 assay (reference value: 34.46 %); assay type: functional
# OCI-Ly10 [11] = experiment: Induction of apoptosis in human OCILY10 cells assessed as late apoptotic cells at 1 uM incubated for 48 hrs by Annexin V-FITC/PI staining based flow cytometry (reference value: 3.54 %); assay type: functional
# OCI-Ly10 [12] = experiment: Induction of apoptosis in human OCILY10 cells harboring MYD88 L265P assessed as early apoptotic cells at 0.2 uM incubated for 48 hrs in presence of BTK inhibitor, ibrutinib by Annexin V-FITC/PI staining based flow cytometry (reference value: 6.76 %); assay type: functional
# OCI-Ly10 [13] = experiment: Synergistic antiproliferative activity against human OCILY10 cells harboring MYD88 L265P assessed as inhibition of cell growth at 400 nM incubated for 72 hrs in presence of BTK inhibitor, ibrutinib at 25 nM by CCK-8 assay (reference value: 34.46 %); assay type: functional
# [14] = target: Proto-oncogene tyrosine-protein kinase Src (Homo sapiens) (UniProt P12931); experiment: Inhibition of SRC (unknown origin) at 100 nM incubated for 1 hr in presence of ATP by ELISA analysis
# [15] = target: Fibroblast growth factor receptor 4 (Homo sapiens) (UniProt P22455); experiment: Inhibition of FGFR4 (unknown origin) at 100 nM incubated for 1 hr in presence of ATP by ELISA analysis
# OCI-Ly10 [16] = experiment: Induction of apoptosis in human OCILY10 cells assessed as early apoptotic cells at 0.1 uM incubated for 48 hrs by Annexin V-FITC/PI staining based flow cytometry (reference value: 5.4 %); assay type: functional
# OCI-Ly10 [17] = experiment: Induction of apoptosis in human OCILY10 cells assessed as early apoptotic cells at 0.2 uM incubated for 24 hrs by Annexin V-FITC/PI staining based flow cytometry (reference value: 10 %); assay type: functional
# [18] = target: Receptor tyrosine-protein kinase erbB-4 (Homo sapiens) (UniProt Q15303); experiment: Inhibition of ERBB4 (unknown origin) at 100 nM incubated for 1 hr in presence of ATP by ELISA analysis
# Chain of Receptor tyrosine-protein kinase erbB-4 (Homo sapiens) (Q15303 whole entry): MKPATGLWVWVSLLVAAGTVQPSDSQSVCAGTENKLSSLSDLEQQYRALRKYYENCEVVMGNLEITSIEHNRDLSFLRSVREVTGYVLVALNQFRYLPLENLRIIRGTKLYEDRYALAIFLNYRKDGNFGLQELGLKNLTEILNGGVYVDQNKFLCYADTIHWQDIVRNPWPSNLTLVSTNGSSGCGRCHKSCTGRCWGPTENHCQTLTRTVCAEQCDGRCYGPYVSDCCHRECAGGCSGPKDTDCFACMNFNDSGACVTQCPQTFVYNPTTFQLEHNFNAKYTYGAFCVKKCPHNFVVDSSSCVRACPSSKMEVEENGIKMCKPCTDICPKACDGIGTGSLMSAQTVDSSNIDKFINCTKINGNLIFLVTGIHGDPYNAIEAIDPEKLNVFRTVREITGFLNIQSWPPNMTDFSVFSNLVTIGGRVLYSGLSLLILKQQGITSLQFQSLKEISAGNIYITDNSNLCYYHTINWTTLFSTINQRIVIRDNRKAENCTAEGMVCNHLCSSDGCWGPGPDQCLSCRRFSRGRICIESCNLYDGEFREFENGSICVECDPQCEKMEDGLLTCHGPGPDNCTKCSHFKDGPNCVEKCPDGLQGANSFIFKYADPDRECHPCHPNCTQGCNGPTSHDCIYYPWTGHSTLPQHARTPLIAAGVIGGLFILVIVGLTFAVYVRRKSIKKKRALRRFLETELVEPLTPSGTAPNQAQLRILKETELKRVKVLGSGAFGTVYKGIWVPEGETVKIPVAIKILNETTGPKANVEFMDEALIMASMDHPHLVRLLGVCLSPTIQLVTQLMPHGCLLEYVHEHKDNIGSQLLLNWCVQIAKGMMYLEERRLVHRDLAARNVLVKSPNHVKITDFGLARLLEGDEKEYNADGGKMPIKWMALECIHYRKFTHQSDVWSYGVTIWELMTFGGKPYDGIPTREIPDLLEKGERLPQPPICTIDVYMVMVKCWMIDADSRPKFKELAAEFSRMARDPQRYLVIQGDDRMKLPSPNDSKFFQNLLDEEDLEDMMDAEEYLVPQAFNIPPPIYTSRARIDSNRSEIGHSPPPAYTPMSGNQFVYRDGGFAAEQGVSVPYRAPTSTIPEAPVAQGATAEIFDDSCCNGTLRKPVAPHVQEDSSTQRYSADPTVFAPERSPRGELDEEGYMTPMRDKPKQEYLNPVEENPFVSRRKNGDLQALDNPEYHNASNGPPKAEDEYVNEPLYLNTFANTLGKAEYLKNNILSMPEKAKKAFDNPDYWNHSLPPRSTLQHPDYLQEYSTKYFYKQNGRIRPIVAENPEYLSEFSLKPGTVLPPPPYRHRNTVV
# OCI-Ly10 [19] = experiment: Induction of apoptosis in human OCILY10 cells harboring MYD88 L265P assessed as upregulation of PARP cleavage at 0.2 uM in presence of BTK inhibitor, ibrutinib by immunoblotting analysis; assay type: functional, cell-based
# [20] = target: Tyrosine-protein kinase BTK (Homo sapiens) (UniProt Q06187); experiment: Inhibition of BTK (unknown origin) at 100 nM incubated for 1 hr in presence of ATP by ELISA analysis
# [21] = target: Tyrosine-protein kinase ABL1 (Homo sapiens) (UniProt P00519); experiment: Inhibition of ABL (unknown origin) at 100 nM incubated for 1 hr in presence of ATP by ELISA analysis
# [22] = target: Focal adhesion kinase 1 (Homo sapiens) (UniProt Q05397); experiment: Inhibition of FAK (unknown origin) at 100 nM incubated for 1 hr in presence of ATP by ELISA analysis
# Chain of Focal adhesion kinase 1 (Homo sapiens) (Q05397 2-1052 limits assumed): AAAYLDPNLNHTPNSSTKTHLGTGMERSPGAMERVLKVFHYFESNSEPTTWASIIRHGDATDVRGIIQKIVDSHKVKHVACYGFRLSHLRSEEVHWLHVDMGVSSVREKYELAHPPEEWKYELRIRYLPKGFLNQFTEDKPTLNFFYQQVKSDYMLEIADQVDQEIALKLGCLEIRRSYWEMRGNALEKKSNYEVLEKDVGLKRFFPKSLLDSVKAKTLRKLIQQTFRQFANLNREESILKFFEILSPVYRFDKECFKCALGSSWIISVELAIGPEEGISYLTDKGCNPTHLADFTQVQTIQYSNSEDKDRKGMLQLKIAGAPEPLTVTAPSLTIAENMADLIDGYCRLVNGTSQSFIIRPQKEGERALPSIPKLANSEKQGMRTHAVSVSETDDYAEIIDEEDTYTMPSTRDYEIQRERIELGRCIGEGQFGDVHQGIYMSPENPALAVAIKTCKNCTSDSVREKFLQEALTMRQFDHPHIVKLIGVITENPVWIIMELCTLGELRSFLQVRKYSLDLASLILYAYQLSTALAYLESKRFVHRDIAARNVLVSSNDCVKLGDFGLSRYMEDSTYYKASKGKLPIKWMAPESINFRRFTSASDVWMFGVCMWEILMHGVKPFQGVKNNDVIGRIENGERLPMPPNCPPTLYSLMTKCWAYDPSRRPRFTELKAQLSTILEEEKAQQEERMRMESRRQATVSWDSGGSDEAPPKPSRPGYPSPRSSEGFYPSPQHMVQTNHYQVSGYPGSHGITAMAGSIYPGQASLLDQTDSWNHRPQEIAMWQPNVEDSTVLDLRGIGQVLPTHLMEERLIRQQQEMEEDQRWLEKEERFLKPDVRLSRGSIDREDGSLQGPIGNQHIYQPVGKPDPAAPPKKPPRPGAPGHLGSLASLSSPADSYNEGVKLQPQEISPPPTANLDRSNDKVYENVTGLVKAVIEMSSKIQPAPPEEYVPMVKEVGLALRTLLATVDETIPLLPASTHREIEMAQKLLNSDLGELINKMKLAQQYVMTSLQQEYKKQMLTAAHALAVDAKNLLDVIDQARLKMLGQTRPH
# OCI-Ly10 [23] = experiment: Synergistic antiproliferative activity against human OCILY10 cells harboring MYD88 L265P assessed as inhibition of cell growth at 200 nM incubated for 72 hrs in presence of BTK inhibitor, ibrutinib at 1.6 nM by CCK-8 assay (reference value: 26.07 %); assay type: functional
# OCI-Ly10 [24] = experiment: Synergistic antiproliferative activity against human OCILY10 cells harboring MYD88 L265P assessed as inhibition of cell growth at 1600 nM incubated for 72 hrs in presence of BTK inhibitor, ibrutinib at 12.5 nM by CCK-8 assay (reference value: 64.69 %); assay type: functional
# [25] = target: Receptor-type tyrosine-protein kinase FLT3 (Homo sapiens) (UniProt P36888); experiment: Inhibition of FLT3 (unknown origin) at 100 nM incubated for 1 hr in presence of ATP by ELISA analysis relative to control
# Chain of Receptor-type tyrosine-protein kinase FLT3 (Homo sapiens) (P36888 whole entry): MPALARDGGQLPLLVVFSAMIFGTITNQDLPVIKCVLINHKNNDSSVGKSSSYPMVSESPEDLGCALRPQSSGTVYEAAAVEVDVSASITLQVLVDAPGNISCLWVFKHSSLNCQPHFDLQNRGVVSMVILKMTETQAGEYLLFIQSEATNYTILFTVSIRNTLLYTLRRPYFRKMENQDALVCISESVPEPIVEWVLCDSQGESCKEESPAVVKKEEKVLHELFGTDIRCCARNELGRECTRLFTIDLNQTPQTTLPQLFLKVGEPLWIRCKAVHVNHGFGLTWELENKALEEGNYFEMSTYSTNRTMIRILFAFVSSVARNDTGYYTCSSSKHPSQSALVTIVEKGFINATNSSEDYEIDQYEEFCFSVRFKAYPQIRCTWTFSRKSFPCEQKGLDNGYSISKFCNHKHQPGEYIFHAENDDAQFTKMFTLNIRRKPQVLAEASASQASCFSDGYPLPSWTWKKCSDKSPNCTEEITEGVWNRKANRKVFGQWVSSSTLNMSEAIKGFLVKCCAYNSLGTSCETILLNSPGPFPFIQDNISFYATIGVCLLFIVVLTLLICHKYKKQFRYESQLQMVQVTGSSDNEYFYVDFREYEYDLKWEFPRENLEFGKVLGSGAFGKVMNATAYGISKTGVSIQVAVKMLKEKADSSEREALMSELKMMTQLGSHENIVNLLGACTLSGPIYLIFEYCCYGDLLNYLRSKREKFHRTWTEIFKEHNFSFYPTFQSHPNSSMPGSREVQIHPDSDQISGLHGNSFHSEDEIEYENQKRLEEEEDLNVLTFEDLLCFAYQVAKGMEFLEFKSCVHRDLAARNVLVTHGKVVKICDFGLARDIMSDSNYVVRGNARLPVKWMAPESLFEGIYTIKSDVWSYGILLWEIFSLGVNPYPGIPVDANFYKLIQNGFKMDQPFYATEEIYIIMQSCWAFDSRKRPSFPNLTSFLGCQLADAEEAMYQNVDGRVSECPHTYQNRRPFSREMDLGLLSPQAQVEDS
# [26] = target: Fibroblast growth factor receptor 1 (Homo sapiens) (UniProt P11362); experiment: Inhibition of FGFR1 (unknown origin) at 100 nM incubated for 1 hr in presence of ATP by ELISA analysis
# [27] = target: Mast/stem cell growth factor receptor Kit (Homo sapiens) (UniProt P10721); experiment: Inhibition of C-kit (unknown origin) at 100 nM incubated for 1 hr in presence of ATP by ELISA analysis
# Chain of Mast/stem cell growth factor receptor Kit (Homo sapiens) (P10721 whole entry): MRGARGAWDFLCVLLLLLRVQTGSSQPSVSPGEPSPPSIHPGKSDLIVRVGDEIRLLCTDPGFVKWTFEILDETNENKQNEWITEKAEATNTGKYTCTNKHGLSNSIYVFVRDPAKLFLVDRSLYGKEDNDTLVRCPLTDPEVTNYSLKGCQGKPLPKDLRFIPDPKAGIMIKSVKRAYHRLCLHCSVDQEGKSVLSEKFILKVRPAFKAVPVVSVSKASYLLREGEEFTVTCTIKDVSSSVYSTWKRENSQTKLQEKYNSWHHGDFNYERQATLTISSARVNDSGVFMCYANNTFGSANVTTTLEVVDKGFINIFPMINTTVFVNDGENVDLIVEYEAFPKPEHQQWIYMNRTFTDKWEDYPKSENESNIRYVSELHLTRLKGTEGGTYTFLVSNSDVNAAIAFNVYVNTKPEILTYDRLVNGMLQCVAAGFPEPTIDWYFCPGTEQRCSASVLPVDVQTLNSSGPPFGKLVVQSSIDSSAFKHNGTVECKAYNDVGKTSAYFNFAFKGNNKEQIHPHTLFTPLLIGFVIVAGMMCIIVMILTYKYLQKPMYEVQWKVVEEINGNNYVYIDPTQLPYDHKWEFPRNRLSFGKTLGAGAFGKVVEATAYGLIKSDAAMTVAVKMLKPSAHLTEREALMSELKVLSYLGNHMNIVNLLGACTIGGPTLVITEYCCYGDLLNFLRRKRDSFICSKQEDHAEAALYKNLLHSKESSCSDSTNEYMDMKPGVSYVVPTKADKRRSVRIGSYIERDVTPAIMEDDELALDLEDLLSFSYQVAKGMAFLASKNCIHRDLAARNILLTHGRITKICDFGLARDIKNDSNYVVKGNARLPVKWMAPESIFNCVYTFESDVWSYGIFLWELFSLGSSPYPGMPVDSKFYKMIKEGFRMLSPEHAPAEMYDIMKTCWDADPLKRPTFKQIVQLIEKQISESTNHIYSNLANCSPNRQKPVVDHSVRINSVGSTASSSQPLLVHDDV
compound,measurement,setting,value
Cn1cc(-c2cc3c(cc2NC(=O)c2coc(-c4ccnc(N)c4)n2)CC(C)(C)O3)cn1,Activity,OCI-Ly10 [1],22%
same,IC50,OCI-Ly10 [2],248 nM
same,inhibition at 0.8 µM,OCI-Ly10 [3],58.1%
same,inhibition at 1.6 µM,OCI-Ly10 [4],70.6%
same,inhibition at 0.1 µM,OCI-Ly10 [5],21.8%
same,inhibition at 0.8 µM,OCI-Ly10 [6],86.4%
same,inhibition,[7],inactive
same,inhibition,[8],inactive
same,IC50,U2932,1250 nM
same,Activity,OCI-Ly10 [9],54.4%
same,inhibition at 0.4 µM,OCI-Ly10 [10],67.2%
same,Activity,OCI-Ly10 [11],37.7%
same,Activity,OCI-Ly10 [12],19.6%
same,inhibition at 0.4 µM,OCI-Ly10 [13],83.2%
same,inhibition,[14],inactive
same,inhibition,[15],inactive
same,Activity,OCI-Ly10 [16],12.9%
same,Activity,OCI-Ly10 [17],11.2%
same,inhibition,[18],inactive
same,Activity,OCI-Ly10 [19],Active
same,inhibition,[20],inactive
same,inhibition,[21],inactive
same,inhibition,[22],inactive
same,inhibition at 0.2 µM,OCI-Ly10 [23],26.9%
same,inhibition at 1.6 µM,OCI-Ly10 [24],88.7%
same,inhibition,[25],> 50%
same,inhibition,[26],inactive
same,inhibition,[27],inactive
